Measured values taken from patent publication US20090062251A1, “Novel Compounds 002” (ASTRAZENECA AB, priority 2007, published 2009).

Target: T1, Human CB1 receptor (hCB1) (Homo sapiens, UniProt P21554)
T1 construct: purchased Receptor Biology
Assay: hCB1 GTPγS binding
Assay type: biochemical
Conditions: for Emax / hCB1 EMax: maximal stimulated binding determined with 10 μM Win 55,212-2; for EC50: hCB1 membranes, GTPγ35S, 10-point dose-response
Procedure: hCB1 and hCB2 GTPγS Binding
Human CB1 receptor from Receptor Biology (hCB1) or human CB2 receptor membranes (BioSignal) are thawed at 37° C., passed 3 times through a 25-gauge blunt-end needle and diluted in the GTPγS binding buffer (50 mM Hepes, 20 mM NaOH, 100 mM NaCl, 1 mM EDTA, 5 mM MgCl2, pH 7.4, 0.1% BSA). […] The basal and maximal stimulated binding is determined in absence and presence of 1 μM (hCB2) or 10 μM (hCB1) Win 55, 212-2 respectively. The membranes are pre-incubated for 5 minutes with 56.25 μM (hCB2) or 112.5 μM (hCB1) GDP prior to distribution in plates (15 μM (hCB2) or 30 μM (hCB1) GDP final). The plates are vortexed and incubated for 60 minutes at room temperature, filtered on Unifilters GF/B (presoaked in water) with the Tomtec or Packard harvester using 3 ml of wash buffer (50 mM Tris, 5 mM MgCl2, 50 mM NaCl, pH 7.0). The filters are dried for 1 hour at 55° C. The radioactivity (cpm) is counted in a TopCount (Packard) after adding 65 μl/well of MS-20 scintillation liquid. Antagonist reversal studies are done in the same way except that (a) an agonist dose-response curve is done in the presence of a constant concentration of antagonist, or (b) an antagonist dose-response curve is done in the presence of a constant concentration of agonist.

T1 sequence (P21554 whole entry): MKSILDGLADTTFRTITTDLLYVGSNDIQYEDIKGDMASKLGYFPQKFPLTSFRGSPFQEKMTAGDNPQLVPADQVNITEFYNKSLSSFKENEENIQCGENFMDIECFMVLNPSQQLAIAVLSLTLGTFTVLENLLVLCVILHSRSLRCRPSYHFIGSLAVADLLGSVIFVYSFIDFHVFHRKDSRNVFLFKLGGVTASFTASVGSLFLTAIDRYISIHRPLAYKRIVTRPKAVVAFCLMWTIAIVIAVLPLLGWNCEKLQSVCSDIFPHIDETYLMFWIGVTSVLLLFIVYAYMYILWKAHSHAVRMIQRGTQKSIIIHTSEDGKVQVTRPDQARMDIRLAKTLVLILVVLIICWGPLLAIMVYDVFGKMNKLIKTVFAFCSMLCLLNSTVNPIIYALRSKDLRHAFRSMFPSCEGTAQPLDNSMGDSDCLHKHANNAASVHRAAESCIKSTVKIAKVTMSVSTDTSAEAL

| SMILES | Emax | hCB1 EMax | EC50 |
| --- | --- | --- | --- |
| CCN(CC(=O)NCCO)C(=O)c1ccc2c(c1)c1c(n2S(=O)(=O)CC)CCC(C2CCOCC2)C1 (centres unmarked) [N-ethyl-9-ethylsulfonyl-N-(2-hydroxyethylcarbamoylmethyl)-6-(oxan-4-yl)-5,6,7,8-tetrahydrocarbazole-3-carboxamide] | 111% | 111% |  |
| CCS(=O)(=O)n1c2c(c3cc(C(=O)N4CCC[C@@H]4C(=O)NCCF)ccc31)CC(C1CCOCC1)CC2 (stereo partly drawn) [(2R)-1-[9-ethylsulfonyl-6-(oxan-4-yl)5,6,7,8-tetrahydrocarbazole-3-carbonyl]-N-(2-fluoroethyl)pyrrolidine-2-carboxamide] | > 107% |  | 1700 nM |
| Cn1c2c(c3cc(C(=O)N4CCC[C@H](C(=O)NC5CC5)C4)ccc31)CC(C1CCOCC1)CC2 (stereo partly drawn) [(3S)—N-cyclopropyl-1-[9-methyl-6-(oxan-4-yl)5,6,7,8-tetrahydrocarbazole-3-carbonyl]piperidine-3-carboxamide] | 118% |  |  |
| CCN(CCCC(=O)NCCO)C(=O)c1ccc2c(c1)c1c(n2C)CC[C@@H](C2CCOCC2)C1 [(R)—N-Ethyl-N-(4-(2-hydroxyethylamino)-4-oxobutyl)-9-methyl-3-(tetrahydro-2H-pyran-4-yl)-2,3,4,9-tetrahydro-1H-carbazole-6-carboxamide] | 113% |  | 31 nM |
| Cn1c2c(c3cc(C(=O)N4CC[C@H](NC(=O)C5CC5)C4)ccc31)CC(C1CCOCC1)CC2 (stereo partly drawn) [N-[(3S)-1-[9-methyl-6-(oxan-4-yl)5,6,7,8-tetrahydrocarbazole-3-carbonyl]pyrrolidin-3-yl]cyclopropanecarboxamide] | 116% |  | 1150 nM |
| CCN(CC(=O)NC1CCOCC1)C(=O)c1ccc2c(c1)c1c(n2C)CCC(C2CCOCC2)C1 (centres unmarked) [N-ethyl-9-methyl-6-(oxan-4-yl)-N-(oxan-4-ylcarbamoylmethyl)-5,6,7,8-tetrahydrocarbazole-3-carboxamide] | > 88% |  | > 1110 nM |
| CN(C)NC(=O)CCCN(C)C(=O)c1ccc2c(c1)c1c(n2C)CC[C@@H](C2CCOCC2)C1 [(R)—N-(4-(2,2-Dimethylhydrazinyl)-4-oxobutyl)-N,9-dimethyl-3-(tetrahydro-2H-pyran-4-yl)-2,3,4,9-tetrahydro-1H-carbazole-6-carboxamide] | 96% |  | 917 nM |
| CN(CCCC(=O)Nn1cccc1)C(=O)c1ccc2c(c1)c1c(n2C)CC[C@@H](C2CCOCC2)C1 [(R)—N-(4-(1H-Pyrrol-1-ylamino)-4-oxobutyl)-N,9-dimethyl-3-(tetrahydro-2H-pyran-4-yl)-2,3,4,9-tetrahydro-1H-carbazole-6-carboxamide] | 89% |  | 1050 nM |
| CCN(CC(=O)NC1CC1)C(=O)c1ccc2c(c1)c1c(n2C)CCC(C2CCOCC2)C1 (centres unmarked) [N-(cyclopropylcarbamoylmethyl)-N-ethyl-9-methyl-6-(oxan-4-yl)-5,6,7,8-tetrahydrocarbazole-3-carboxamide] | 124% |  |  |
| CCN(CC(=O)NCCF)C(=O)c1ccc2c(c1)c1c(n2C)CCC(C2CCOCC2)C1 (centres unmarked) [N-ethyl-N-(2-fluoroethylcarbamoylmethyl)-9-methyl-6-(oxan-4-yl)-5,6,7,8-tetrahydrocarbazole-3-carboxamide] | 108% |  |  |
| CCS(=O)(=O)n1c2c(c3cc(C(=O)N4CCC[C@@H](O)C4)ccc31)CC(C1CCOCC1)CC2 (stereo partly drawn) [[9-ethylsulfonyl-6-(oxan-4-yl)-5,6,7,8-tetrahydrocarbazol-3-yl]-[(3R)-3-hydroxy-1-piperidyl]methanone] | 104% |  | 1760 nM |
| COCCNC(=O)CCCN(C)C(=O)c1ccc2c(c1)c1c(n2C)CC[C@@H](C2CCOCC2)C1 [(R)—N-(4-(2-Methoxyethylamino)-4-oxobutyl)-N,9-dimethyl-3-(tetrahydro-2H-pyran-4-yl)-2,3,4,9-tetrahydro-1H-carbazole-6-carboxamide] | 93% |  | 1210 nM |
| CCNC(=O)CN(CC)C(=O)c1ccc2c(c1)c1c(n2CCO)CCC(C2CCOCC2)C1 (centres unmarked) [N-ethyl-N-(ethylcarbamoylmethyl)-9-(2-hydroxyethyl)-6-(oxan-4-yl)-5,6,7,8-tetrahydrocarbazole-3-carboxamide] | > 83% |  | > 3330 nM |
| Cn1c2c(c3cc(C(=O)N4CC[C@H](C(=O)NC5CC5)C4)ccc31)CC(C1CCOCC1)CC2 (stereo partly drawn) [(3S)—N-cyclopropyl-1-[9-methyl-6-(oxan-4-yl)5,6,7,8-tetrahydrocarbazole-3-carbonyl]pyrrolidine-3-carboxamide] | 134% |  |  |
| CCS(=O)(=O)n1c2c(c3cc(C(=O)N4CC[C@@H](O)C4)ccc31)CC(C1CCOCC1)CC2 (stereo partly drawn) [[9-ethylsulfonyl-6-(oxan-4-yl)-5,6,7,8-tetrahydrocarbazol-3-yl]-[(3R)-3-hydroxypyrrolidin-1-yl]methanone] | > 89% |  | > 3160 nM |
| CCNC(=O)CN(CC)C(=O)c1ccc2c(c1)c1c(n2CC(=O)N(CC)CC)CCC(C2CCOCC2)C1 (centres unmarked) [9-(diethylcarbamoylmethyl)-N-ethyl-N-(ethylcarbamoylmethyl)-6-(oxan-4-yl)-5,6,7,8-tetrahydrocarbazole-3-carboxamide] | > 87% |  | > 10000 nM |
| CN(CCCC(=O)NCC#N)C(=O)c1ccc2c(c1)c1c(n2C)CC[C@@H](C2CCOCC2)C1 [(R)—N-(4-(Cyanomethylamino)-4-oxobutyl)-N,9-dimethyl-3-(tetrahydro-2H-pyran-4-yl)-2,3,4,9-tetrahydro-1H-carbazole-6-carboxamide] | 110% |  | 71 nM |
| CONC(=O)CCCN(C)C(=O)c1ccc2c(c1)c1c(n2C)CC[C@@H](C2CCOCC2)C1 [(R)—N-(4-(Methoxyamino)-4-oxobutyl)-N,9-dimethyl-3-(tetrahydro-2H-pyran-4-yl)-2,3,4,9-tetrahydro-1H-carbazole-6-carboxamide] | 104% |  | 291 nM |
| CN(C(=O)c1ccc2c(c1)c1c(n2C)CC[C@@H](C2CCOCC2)C1)[C@H](CO)CCC(=O)NC1COC1 [(R)—N-((S)-1-Hydroxy-5-(oxetan-3-ylamino)-5-oxopentan-2-yl)-N,9-dimethyl-3-(tetrahydro-2H-pyran-4-yl)-2,3,4,9-tetrahydro-1H-carbazole-6-carboxamide] | 119% |  | 201 nM |
| CCS(=O)(=O)n1c2c(c3cc(C(=O)N4CC[C@H](O)C4)ccc31)CC(C1CCOCC1)CC2 (stereo partly drawn) [[9-ethylsulfonyl-6-(oxan-4-yl)-5,6,7,8-tetrahydrocarbazol-3-yl]-[(3S)-3-hydroxypyrrolidin-1-yl]methanone] | 105% |  | 4560 nM |
| CN(C(=O)c1ccc2c(c1)c1c(n2C)CC[C@@H](C2CCOCC2)C1)[C@H](CO)CCC(=O)NCC(F)F [(R)—N-((S)-5-(2,2-Difluoroethylamino)-1-hydroxy-5-oxopentan-2-yl)-N,9-dimethyl-3-(tetrahydro-2H-pyran-4-yl)-2,3,4,9-tetrahydro-1H-carbazole-6-carboxamide] | 120% |  | 107 nM |
| CN(CC(=O)NC1CC1)C(=O)c1ccc2c(c1)c1c(n2C)CCC(C2CCOCC2)C1 (centres unmarked) [N-(cyclopropylcarbamoylmethyl)-N,9-dimethyl-6-(oxan-4-yl)-5,6,7,8-tetrahydrocarbazole-3-carboxamide] | 121% | 121% |  |
| CN(CCCC(=O)NCCF)C(=O)c1ccc2c(c1)c1c(n2C)CCC(C2CCOCC2)C1 (centres unmarked) [N-[3-(2-fluoroethylcarbamoyl)propyl]-N,9-dimethyl-6-(oxan-4-yl)-5,6,7,8-tetrahydrocarbazole-3-carboxamide] | 121% |  |  |
